This data set is described as follows: physchem. The conditions noted are these: organic solvent or mixture, thermodynamic from solid. On the procedure:
Weighed samples of material were treated with aliquots of specified solvents at ambient temperature. Samples were typically sonicated between additions to facilitate dissolution. Complete dissolution was observed through visual inspection. Solubility was calculated based on the total amount of solvent added to achieve complete dissolution and may be greater than the value reported due to incremental solvent addition and the inherent kinetics of dissolution. If dissolution was not observed, values are reported as “less than”. If dissolution was observed upon the first addition of solvent, values are reported as “greater than”.

In the case of `Br.Br.CCC[C@H](N[C@H]1CCc2cc(F)cc(F)c2C1)C(=O)Nc1cn(C(C)(C)CNCC(C)(C)C)cn1` [nirogacestat dihydrobromide, (S)-2-(((S)-6,8-difluoro-1,2,3,4-tetrahydronaphthalen-2-yl)amino)-N-(1-(2-methyl-1-(neopentylamino)propan-2-yl)-1H-imidazol-4-yl)pentanamide], the solubility was less than 1000 µg/mL.

As usually defined, the solubility is how much of the substance goes into solution per volume.

(Values after US20230121547A1, “A COMBINATION THERAPY WITH NIROGACESTAT AND A BCMA-DIRECTED THERAPY AND USES THEREOF” (SpringWorks Therapeutics Inc., priority 2020, published 2023).)
